Test results: ChEMBL document CHEMBL1201862, “PubChem BioAssay data set” (2004)
Activity calls are given as the source filed them.

Key:
[1] = target: T1, DNA repair protein RAD52 homolog (Homo sapiens, UniProt P43351); assay type: functional, biochemical
T1 sequence (P43351 whole entry): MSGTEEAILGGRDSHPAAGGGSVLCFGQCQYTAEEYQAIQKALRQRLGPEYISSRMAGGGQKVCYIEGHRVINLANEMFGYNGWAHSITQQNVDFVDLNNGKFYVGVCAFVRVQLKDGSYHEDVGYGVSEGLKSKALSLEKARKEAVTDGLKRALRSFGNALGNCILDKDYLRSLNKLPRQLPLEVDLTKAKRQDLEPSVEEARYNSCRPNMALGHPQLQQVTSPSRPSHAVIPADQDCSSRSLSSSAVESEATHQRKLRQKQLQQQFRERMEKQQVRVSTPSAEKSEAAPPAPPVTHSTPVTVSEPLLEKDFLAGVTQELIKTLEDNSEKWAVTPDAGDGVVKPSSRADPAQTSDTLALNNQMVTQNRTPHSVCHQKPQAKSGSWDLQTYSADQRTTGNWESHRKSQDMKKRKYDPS

[2] = target: T2, DNA repair and recombination protein RAD54-like (Homo sapiens, UniProt Q92698); assay: inhibitors of human RAD54 branch migration, confirmation, biochemical, fluorescence, cherry-picked samples, dose series (AID 651657); assay type: functional
T2 sequence (Q92698 whole entry): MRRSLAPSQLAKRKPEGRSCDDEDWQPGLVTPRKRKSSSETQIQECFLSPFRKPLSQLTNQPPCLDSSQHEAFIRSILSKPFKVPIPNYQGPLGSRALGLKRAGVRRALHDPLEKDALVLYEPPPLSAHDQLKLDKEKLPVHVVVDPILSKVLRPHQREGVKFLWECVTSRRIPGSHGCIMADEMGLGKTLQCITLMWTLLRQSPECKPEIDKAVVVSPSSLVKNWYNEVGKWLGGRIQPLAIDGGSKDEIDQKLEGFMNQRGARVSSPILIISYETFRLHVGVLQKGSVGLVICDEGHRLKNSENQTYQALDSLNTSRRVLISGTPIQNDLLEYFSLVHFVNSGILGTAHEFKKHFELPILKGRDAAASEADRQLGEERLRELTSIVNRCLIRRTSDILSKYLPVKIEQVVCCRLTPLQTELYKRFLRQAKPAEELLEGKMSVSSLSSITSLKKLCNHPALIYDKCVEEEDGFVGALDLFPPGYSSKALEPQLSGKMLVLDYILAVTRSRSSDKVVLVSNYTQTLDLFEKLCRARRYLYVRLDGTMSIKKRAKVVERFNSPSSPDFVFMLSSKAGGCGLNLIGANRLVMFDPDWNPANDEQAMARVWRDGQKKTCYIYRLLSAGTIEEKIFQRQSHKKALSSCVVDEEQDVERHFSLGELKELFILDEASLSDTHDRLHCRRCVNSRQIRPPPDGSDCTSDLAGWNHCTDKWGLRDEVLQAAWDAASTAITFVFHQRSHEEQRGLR

[3] = A cytotoxicity screen of small molecule inhibitors of the PhoP region in Salmonella typhi identified in the primary screen. [Related pubchem assays: 1850, 1864, 1985 ]; assay type: functional
BJ [4] = assay: cytotoxicity toward BJ-TERT fibroblasts, dose response, cell-based, RAS-independent, luminescence (AID 1933); assay type: functional; details: Homo sapiens
BJ [5] = assay: cytotoxicity toward Ras-transformed BJeLR fibroblasts, dose response, cell-based, alamar blue fluorescence, cherrypicked samples (AID 2631); assay type: functional; details: Homo sapiens;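 further: confirmatory dose-response assay in RAS-dependent BJ fibroblasts engineered with TERT, LT and ST, with cytotoxicity read by fluorescence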
[6] = cytotoxicity toward DRD oncogenic fibroblasts, dose response, cell-based, non-viral oncogenic, luminescence (AID 1934); assay type: functional; details: Homo sapiens
[7] = target: T3, Ubiquitin-conjugating enzyme E2 N (Homo sapiens, UniProt P61088); assay type: functional;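 further: Dose-response confirmation in a TR-FRET assay detecting UBC13-driven polyubiquitin chain formation, inhibition measured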
T3 sequence (P61088 whole entry): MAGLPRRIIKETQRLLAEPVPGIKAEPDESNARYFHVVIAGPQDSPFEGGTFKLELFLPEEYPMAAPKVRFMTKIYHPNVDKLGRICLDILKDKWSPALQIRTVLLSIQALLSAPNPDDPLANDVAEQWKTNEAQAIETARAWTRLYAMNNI

BJ [8] = assay: cells; assay type: functional, cell-based; details: Homo sapiens
BJ [9] = assay: cytotoxicity toward BJ-TERT-LT-ST fibroblasts, dose response, cell-based, RAS-independent, luminescence (AID 1935); assay type: functional; details: Homo sapiens;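 further: BJ fibroblasts immortalized with TERT plus LT and ST oncogenes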
[10] = target: T4, Sentrin-specific protease 8 (Homo sapiens, UniProt Q96LD8); assay type: functional
T4 sequence (Q96LD8 whole entry): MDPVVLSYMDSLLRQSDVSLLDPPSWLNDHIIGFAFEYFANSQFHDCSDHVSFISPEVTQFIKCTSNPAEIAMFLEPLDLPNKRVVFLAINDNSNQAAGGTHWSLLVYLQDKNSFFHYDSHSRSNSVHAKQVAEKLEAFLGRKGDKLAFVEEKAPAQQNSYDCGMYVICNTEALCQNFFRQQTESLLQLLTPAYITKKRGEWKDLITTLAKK

[11] = target: T4, Sentrin-specific protease 8; assay type: functional; remark: listed apart in the source
Vero [12] = assay: cells; assay type: functional; details: Chlorocebus sabaeus
[13] = HEp-2 cell cytotoxicity, dose response, cytotoxicity control for RSV inhibitor project, HTS (AID 2410); assay type: functional; details: human respiratory syncytial virus
Vero [14] = assay: cells; assay type: functional, cell-based; details: Chlorocebus sabaeus
[15] = target: T5, Polyadenylate-binding protein 1 (Homo sapiens, UniProt P11940); assay: PABP1 MLLE–PAM2 binding inhibitor potency, dose response, biochemical, fluorescence polarization, FITC-PAM2 peptide (AID 602259); assay type: functional; details: read-out: IC50_Mean
Genome polyprotein = Genome polyprotein (dengue virus type 2, UniProt P29990); assay: Dengue-2 NS5 methyltransferase inhibitors, primary screen, biochemical, confirmation dose response (AID 588689); assay type: functional
[16] = target: T5, Polyadenylate-binding protein 1; assay: PABP1 MLLE–PAM2 interaction inhibitors, dose response, miRNA deadenylation inhibitor project, biochemical, fluorescence polarization, Cy5-PAM2 peptide, secondary (AID 602260); assay type: functional; details: read-out: IC50_Mean
[17] = target: Glucose-6-phosphate 1-dehydrogenase (Homo sapiens, UniProt P11413); assay: human G6PD enzyme inhibitors, dose response, selectivity assay for P. falciparum G6PD inhibitor project, biochemical, fluorescence (AID 504792); assay type: functional
[18] = target: DNA dC->dU-editing enzyme APOBEC-3G (Homo sapiens, UniProt Q9HC16); assay: Dose Response confirmation of small molecule APOBEC3G DNA Deaminase Inhibitors via a fluorescence-based single-stranded DNA deaminase assay. [Related pubchem assays (depositor defined):AID493012, AID493028]; assay type: functional
[19] = target: DNA dC->dU-editing enzyme APOBEC-3A (Homo sapiens, UniProt P31941); assay: APOBEC3A DNA deaminase inhibitors, dose response, biochemical (AID 504722); assay type: functional
[20] = target: T6, Short transient receptor potential channel 4 (Mus musculus, UniProt Q9QUQ5); assay: mouse TRPC4 channel inhibitors, dose response, cell-based, HEK293 TRPC4/mu-opioid, Fluo-4 calcium (AID 434942); assay type: functional;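 further: potency of inhibitors blocking the TRPC4 calcium response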
T6 sequence (Q9QUQ5 whole entry): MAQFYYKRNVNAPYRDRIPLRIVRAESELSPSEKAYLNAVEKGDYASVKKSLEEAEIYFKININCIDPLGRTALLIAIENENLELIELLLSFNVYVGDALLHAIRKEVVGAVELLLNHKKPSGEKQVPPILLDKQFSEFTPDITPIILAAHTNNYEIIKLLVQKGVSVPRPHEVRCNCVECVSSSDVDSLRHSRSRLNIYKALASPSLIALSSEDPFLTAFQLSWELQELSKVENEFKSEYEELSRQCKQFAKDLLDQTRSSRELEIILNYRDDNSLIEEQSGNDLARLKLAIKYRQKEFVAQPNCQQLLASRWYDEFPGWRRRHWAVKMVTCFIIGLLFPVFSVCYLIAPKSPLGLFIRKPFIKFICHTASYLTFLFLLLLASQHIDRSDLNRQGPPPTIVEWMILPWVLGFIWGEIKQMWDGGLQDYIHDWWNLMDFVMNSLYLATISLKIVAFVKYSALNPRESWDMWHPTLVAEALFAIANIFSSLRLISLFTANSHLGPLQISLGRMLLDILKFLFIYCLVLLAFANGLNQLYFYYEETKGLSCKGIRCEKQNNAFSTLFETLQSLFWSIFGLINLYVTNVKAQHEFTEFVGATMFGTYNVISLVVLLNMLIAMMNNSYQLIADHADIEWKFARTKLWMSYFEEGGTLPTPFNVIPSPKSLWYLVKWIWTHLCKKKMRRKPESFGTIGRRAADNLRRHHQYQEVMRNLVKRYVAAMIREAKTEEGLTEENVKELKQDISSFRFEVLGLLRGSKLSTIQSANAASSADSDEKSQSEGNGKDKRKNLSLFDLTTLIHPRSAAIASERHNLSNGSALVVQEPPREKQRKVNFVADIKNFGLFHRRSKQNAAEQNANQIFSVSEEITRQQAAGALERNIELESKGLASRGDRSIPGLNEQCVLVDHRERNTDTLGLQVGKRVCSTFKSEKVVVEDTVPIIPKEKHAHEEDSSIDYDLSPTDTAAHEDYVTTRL

T5 sequence (P11940 whole entry): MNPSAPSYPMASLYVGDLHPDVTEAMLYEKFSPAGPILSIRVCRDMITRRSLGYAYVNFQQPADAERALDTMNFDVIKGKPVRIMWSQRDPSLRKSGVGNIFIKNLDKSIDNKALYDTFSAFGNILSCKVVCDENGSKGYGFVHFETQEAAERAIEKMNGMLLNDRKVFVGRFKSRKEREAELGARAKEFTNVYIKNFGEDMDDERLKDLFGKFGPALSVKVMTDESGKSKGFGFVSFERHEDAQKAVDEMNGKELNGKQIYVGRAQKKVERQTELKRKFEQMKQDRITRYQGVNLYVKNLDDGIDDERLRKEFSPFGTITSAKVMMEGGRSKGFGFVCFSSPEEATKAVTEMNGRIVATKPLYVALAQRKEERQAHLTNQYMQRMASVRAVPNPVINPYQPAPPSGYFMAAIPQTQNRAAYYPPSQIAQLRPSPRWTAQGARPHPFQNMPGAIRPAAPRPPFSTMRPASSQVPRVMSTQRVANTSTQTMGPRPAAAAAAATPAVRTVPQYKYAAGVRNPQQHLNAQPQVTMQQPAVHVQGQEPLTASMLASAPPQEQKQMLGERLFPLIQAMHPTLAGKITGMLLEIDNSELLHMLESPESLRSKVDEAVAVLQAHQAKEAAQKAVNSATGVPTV
Sequence of DNA dC->dU-editing enzyme APOBEC-3A (P31941 whole entry): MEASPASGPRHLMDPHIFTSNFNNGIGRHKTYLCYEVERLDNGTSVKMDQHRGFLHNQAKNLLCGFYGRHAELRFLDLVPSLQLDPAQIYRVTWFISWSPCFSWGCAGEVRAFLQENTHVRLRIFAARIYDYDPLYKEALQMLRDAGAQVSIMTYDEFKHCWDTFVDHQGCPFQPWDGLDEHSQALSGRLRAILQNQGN
Sequence of Glucose-6-phosphate 1-dehydrogenase (P11413 whole entry): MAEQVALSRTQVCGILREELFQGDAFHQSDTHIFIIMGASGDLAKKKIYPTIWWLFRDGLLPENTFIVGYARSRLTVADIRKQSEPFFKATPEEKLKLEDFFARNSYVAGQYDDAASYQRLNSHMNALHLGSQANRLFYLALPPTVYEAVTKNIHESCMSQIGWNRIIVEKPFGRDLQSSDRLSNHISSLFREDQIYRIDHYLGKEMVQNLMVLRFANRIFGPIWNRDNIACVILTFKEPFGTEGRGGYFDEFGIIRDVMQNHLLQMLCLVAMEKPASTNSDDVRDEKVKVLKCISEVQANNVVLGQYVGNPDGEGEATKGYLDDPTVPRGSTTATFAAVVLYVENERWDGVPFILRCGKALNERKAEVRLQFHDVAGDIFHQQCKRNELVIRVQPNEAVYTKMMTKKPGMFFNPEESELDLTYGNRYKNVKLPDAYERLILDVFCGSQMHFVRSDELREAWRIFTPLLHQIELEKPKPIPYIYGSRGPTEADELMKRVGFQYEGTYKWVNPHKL
Sequence of DNA dC->dU-editing enzyme APOBEC-3G (Q9HC16 whole entry): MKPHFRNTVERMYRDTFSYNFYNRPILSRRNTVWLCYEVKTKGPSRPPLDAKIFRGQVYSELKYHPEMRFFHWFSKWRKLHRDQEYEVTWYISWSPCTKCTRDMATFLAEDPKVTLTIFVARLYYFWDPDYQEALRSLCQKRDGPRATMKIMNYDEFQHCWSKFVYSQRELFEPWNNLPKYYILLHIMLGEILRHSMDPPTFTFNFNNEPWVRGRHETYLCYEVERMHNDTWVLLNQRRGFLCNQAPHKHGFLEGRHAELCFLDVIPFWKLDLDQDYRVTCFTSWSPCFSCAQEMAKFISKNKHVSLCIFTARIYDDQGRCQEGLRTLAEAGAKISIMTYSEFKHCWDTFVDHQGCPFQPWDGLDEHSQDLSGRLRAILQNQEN
Sequence of Genome polyprotein (P29990 2492-3391 limits assumed): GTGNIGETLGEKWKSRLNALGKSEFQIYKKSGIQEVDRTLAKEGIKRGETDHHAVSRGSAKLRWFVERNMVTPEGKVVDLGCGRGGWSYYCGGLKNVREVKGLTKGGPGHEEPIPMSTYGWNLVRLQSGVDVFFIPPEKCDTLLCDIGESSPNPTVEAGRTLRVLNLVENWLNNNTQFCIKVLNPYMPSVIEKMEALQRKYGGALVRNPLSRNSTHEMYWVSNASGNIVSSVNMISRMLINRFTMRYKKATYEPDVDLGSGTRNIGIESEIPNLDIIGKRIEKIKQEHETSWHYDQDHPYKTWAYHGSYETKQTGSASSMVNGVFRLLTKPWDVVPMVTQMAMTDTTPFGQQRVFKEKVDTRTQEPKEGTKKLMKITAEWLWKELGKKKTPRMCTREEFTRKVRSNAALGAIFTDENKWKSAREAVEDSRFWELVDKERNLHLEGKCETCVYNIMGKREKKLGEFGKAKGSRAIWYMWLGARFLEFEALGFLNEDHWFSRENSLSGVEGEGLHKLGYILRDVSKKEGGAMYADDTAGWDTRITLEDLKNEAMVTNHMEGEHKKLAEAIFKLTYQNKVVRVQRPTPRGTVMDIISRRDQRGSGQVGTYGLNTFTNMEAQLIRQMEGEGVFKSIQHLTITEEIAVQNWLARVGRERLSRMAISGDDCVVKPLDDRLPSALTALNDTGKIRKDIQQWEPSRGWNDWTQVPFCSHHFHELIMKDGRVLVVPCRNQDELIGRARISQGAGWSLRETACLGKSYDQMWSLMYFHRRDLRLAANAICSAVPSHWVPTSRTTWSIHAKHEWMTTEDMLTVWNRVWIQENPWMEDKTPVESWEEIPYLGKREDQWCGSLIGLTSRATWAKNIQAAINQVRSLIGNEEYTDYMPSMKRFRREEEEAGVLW

SMILES: CCN1CCN(c2cc(C)c3cc(NC(S)=NCCCN4CCc5ccccc5C4)ccc3n2)CC1
- AC50 [1]: 3 µM (active)
- AC50 [2]: 20.6 µM (active)

SMILES: Cc1cc(C)c(CSc2ncnc3[nH]cnc23)c(C)c1
- EC50 [3]: > 50 µM (active)

SMILES: O=C(CCCCCN1C(=O)c2cccc3cccc(c23)C1=O)NCc1cccnc1
- EC50 (BJ [4]): > 150 µM (not active)
- EC50 (BJ [5]): > 66.7 µM (inactive)
- EC50 [6]: > 150 µM (not active)
- IC50 [7]: > 20 µM (inactive)
- EC50 (BJ [8]): 3.59 µM (inconclusive)
- EC50 (BJ [9]): > 150 µM (inconclusive)

SMILES: Cc1cnc(C(=O)Nc2c(-c3ccccc3)[nH][nH]c2=O)cn1
- IC50 [10]: 30.3 µM (active)
- IC50 [11]: 20.3 µM (active)

SMILES: CC(=O)/C(C#N)=C1\NC(=O)C(Cc2ccccc2C)S1 (stereo not drawn)
- CC50 (Vero [12]): > 25 µM (active)
- IC50 (cells): 2.54 µM (active)
- CC50 [13]: 5.95 µM (active)
- IC50 (Vero [14]): 5.5 µM (active)

SMILES: COc1cccc(NC(=O)N2CCCC(C(=O)Nc3ccccc3OC)C2)c1 (stereo not drawn)
- EC50 [3]: > 50 µM (active)

SMILES: Oc1cc(-n2cccn2)c(O)cc1-n1cccn1
- IC50 [15]: > 66 µM (inactive)
- IC50 (Genome polyprotein): 79.2 µM (active)
- IC50 [16]: > 66 µM (inactive)
- IC50 [17]: 33 µM (inactive)

SMILES: Cn1c(C(=O)NCc2ccccc2)cc2oc3ccccc3c21
- CC50 (Vero [12]): > 25 µM (active)
- IC50 (cells): 7.04 µM (active)
- CC50 [13]: 28.9 µM (active)
- IC50 (Vero [14]): 1.87 µM (active)

SMILES: CCn1c(-c2cccc(Cl)c2)n[nH]c1=S
- IC50 [18]: 6.09 µM (active)
- IC50 [19]: > 100 µM (inactive)

SMILES: CCOC(=O)Nc1c2ccccc2nc2ccccc12
- AC50 [2]: 54.8 µM (active)

SMILES: CCOC(=O)C1=NN(c2ccccc2C)C2=NC(C)=C(C(=O)OC)C(c3cccc(OC)c3)N12 (stereo not drawn)
- EC50 [20]: 2.99 µM (active)
